From patent US20210008097A1, “Compositions Comprising Galactose-Pronged Polysaccharides” (Galectin Therapeutics, Inc., priority 2006, published 2021)
One block for each molecule: values may come before it.

What was measured:
[1] = after 24 hrs; cited from earlier work
[2] = Liver, lung, kidney and plasma distribution of radiolabeled (tritiated) galactomannan after single intravenous injection; type: in vivo, male NCr-nu athymic nude mice; conditions: for μCi of 3H-galactomannan per 1 g of kidney / μCi of 3H-galactomannan per 1 g of liver / μCi of 3H-galactomannan per 1 g of lungs / μCi of 3H-galactomannan per kidney, total / μCi of 3H-galactomannan per lungs, total / μCi of 3H-galactomannan per mL of plasma / μCi of 3H-galactomannan per liver, total: 6 or 60 mg/kg i.v., pooled; for μCi of 3H-galactomannan per liver, total: average of four animals
From the text: Twelve male NCr-nu athymic nude mice (Charles Rivers Laboratories, Raleigh, N.C.) were acclimated in the laboratory one week prior to experimentation. The animals were housed in microisolator cages, four per cage, and using a 12-hour light/dark cycle. All animals received sterilized tap water and sterile rodent food ad libitum. The animals were observed daily and clinical signs were noted. The mice were healthy and had not been previously used in other experimental procedures.
Tritiation of the galactomannan was performed as follows. 12.8 mg of the galactomannan was dissolved in 2.0 mL of water and exposed to 25 Curies of tritium gas in the presence of Pd/BaSO4 catalyst (120 mg, totally insoluble in water). After one hour the gas supply was removed, the catalyst was filtered away, and the aqueous solution of the galactomannan was evaporated to dryness repeatedly (four-fold, adding water), until no labile tritium was found. Total yield of the labeled galactomannan was 3.8 mCi, specific radioactivity was […].
All twelve mice were given a single intravenous injection of cold or tritiated galactomannan (either 6 or 60 mg/kg) on the same day. Non-labeled galactomannan was formulated in saline, and tritiated galactomannan was added to the solution so that each animal received 10 μCi of radioactivity. All dosing solutions (100 μL each) were counted in duplicate. Six mice were injected with 6 mg/kg solution, and six mice—with 60 mg/kg solution.
Two mice from each group were bled at 1, 6, and 24 hrs after injection, and plasma was prepared. Animals were then sacrificed; livers, kidneys and lungs were collected, weighed and flash-frozen for further analysis.
After weighing, livers were dissolved in 10 mL of Soluene 350 and incubated first for 4 hrs at 50° C., and at room temperature, until tissues were solubilized. One mL of the resulting solution was counted in a scintillation counter as a single sample. Based on tissue weight and the sample volume, the number of μCi of tritiated galactomannan per gram of tissue was calculated.
Kidneys were treated in the same manner, but dissolved in two mL of Soluene. After the tissue was solubilized at room temperature, 15 mL of Safety Solve scintillation fluid was added and samples were incubated overnight. Five mL of the resulting solution were diluted in 15 mL of Safety Solve and counted in a scintillation counter as a single sample. Lungs were treated in the same manner but dissolved in one mL of Soluene. Plasma samples (50 μL each) were placed direct into Safety Solve and counted as a single sample.
The statistical evaluation was based on experiments to trace and quantify the labeled galactomannan in organs/tissues (liver, kidneys, lung, and plasma). Six mice were treated with galactomannan at 60 mg/kg with each of 2 mice sacrificed at 1, 6, and 24 hours; six mice were treated with galactomannan at 6 mg/kg with each of 2 mice sacrificed at 1, 6, and 24 hours, as described above. The percentages of ^3H-galactomannan recovered per organ (μCi/gram) was used for analyses; plasma outcome (μCi/ml) was counted from the entire sample.
The assessment of radiolabel uptake was challenging with only two mice per treatment-sacrifice time combination and occasional outliers. To address the number of mice per group, pooling tests were performed for the two galactomannan treatment groups; this would potentially increase sample size per group to four. To address possible outliers, all outcomes for each individual mouse was visually compared to the other mice in the series-treatment-time combination; the four possible mice outcomes were considered in this evaluation since any sigma-based rule would have excluded none or both observations if applied separately to the two different series.
SAS (Version 6.12, Cary, N.C.) was used for all analyses. PROC ANOVA was used for pooling tests, while […] was used to estimate means and standard deviations.
Overall, the data in Table 1 are average for four animals.

Molecule: O=c1[nH]cc(F)c(=O)[nH]1 [5-fluorouracil]
- clearance from the kidneys, eliminated to [1]: 3.8%
- clearance from the liver, eliminated to [1]: 1.6%
- clearance from the lungs, eliminated to [1]: 3.6%

- increase of the amount of bound galactomannan ([2]; 60 mg/kg versus 6 mg/kg (10-times higher dose)): 10 fold
- μCi of 3H-galactomannan per 1 g of kidney ([2]; 1 hr after injection): 0.302 μCi/gram
- μCi of 3H-galactomannan per 1 g of liver ([2]; 1 hr after injection): 0.219 μCi/gram
- μCi of 3H-galactomannan per 1 g of lungs ([2]; 1 hr after injection): 0.117 μCi/gram
- μCi of 3H-galactomannan per kidney, total ([2]; 1 hr after injection): 0.120 μCi
- μCi of 3H-galactomannan per lungs, total ([2]; 1 hr after injection): 0.019 μCi
- μCi of 3H-galactomannan per mL of plasma ([2]; 1 hr after injection): 0.201 μCi/ml
- μCi of 3H-galactomannan per liver, total ([2]; 1 hr after injection): 0.262 μCi
- μCi of 3H-galactomannan per 1 g of kidney ([2]; 6 hr after injection): 0.131 μCi/gram
- μCi of 3H-galactomannan per 1 g of liver ([2]; 6 hr after injection): 0.146 μCi/gram
- μCi of 3H-galactomannan per 1 g of lungs ([2]; 6 hr after injection): 0.063 μCi/gram
- μCi of 3H-galactomannan per kidney, total ([2]; 6 hr after injection): 0.060 μCi
- μCi of 3H-galactomannan per lungs, total ([2]; 6 hr after injection): 0.012 μCi
- μCi of 3H-galactomannan per mL of plasma ([2]; 6 hr after injection): 0.095 μCi/ml
- μCi of 3H-galactomannan per liver, total ([2]; 6 hr after injection): 0.196 μCi
- μCi of 3H-galactomannan per 1 g of kidney ([2]; 24 hrs after injection): 0.087 μCi/gram
- μCi of 3H-galactomannan per 1 g of liver ([2]; 24 hrs after injection): 0.129 μCi/gram
- μCi of 3H-galactomannan per 1 g of lungs ([2]; 24 hrs after injection): 0.060 μCi/gram
- μCi of 3H-galactomannan per kidney, total ([2]; 24 hrs after injection): 0.040 μCi
- μCi of 3H-galactomannan per lungs, total ([2]; 24 hrs after injection): 0.011 μCi
- μCi of 3H-galactomannan per mL of plasma ([2]; 24 hrs after injection): 0.106 μCi/ml
- μCi of 3H-galactomannan per liver, total ([2]; 24 hrs after injection): 0.169 μCi
- saturation of the binding to liver, kidney, lung, and plasma ([2]; between the 6 mg/kg and 60 mg/kg doses): did not reach saturation of the binding
- share of the radioactivity detected at one hour after injection still present ([2]; liver, at 24 hours, average): more than 50%
- share of the one-hour radioactivity detected ([2]; plasma, kidneys, and lungs, at 6 hours, average): approximately 50%
Molecule: galactomannan
